Experimental data taken from patent US20260344661A1, “USE OF AN ALKYLETHER SULFATE FOR IMPROVING THE EFFICACY OF HERBICIDES” (BASF SE, priority 2022, published 2026).

Columns and labels:
DIGSA (large crabgrass) = experiment: Greenhouse post-emergence weed control, damage vs untreated (DIGSA); format: in vivo, Digitaria sanguinalis; conditions: 20 DAT, adjuvant g ai/ha: none (CE1-A)
Protocol: (§1) A greenhouse study was conducted to evaluate the effect of the alkylether sulfates of formula (I) and other adjuvants on the weed control efficacy of glufosinate. Seedlings of grass plants (AVEFA, ECHCG, DIGSA and SETVI) and broadleaf weeds (KCHSC, CHEAL, AMAPA, AMATA and ABUTH) were grown to a height of 3 to 20 cm, depending on the plant habit in 10×10×10 cm pots filled with sandy planting soil (Limburgerhof soil). The weeds were treated with postemergence applications of glufosinate ammonium at the respective application rates given in the following tables, either alone or combined with various amounts of the respective adjuvants.
(§2) For this, the herbicide formulation and the respective adjuvant were introduced into tap water to obtain the spray liquor. […] The spray liquor was then applied to the plant a spray volume of 200 l/ha using a sprayer (XR Teejet 110015).
(§3) The test period extended over 21 days. During this time, the plants were tended, and their response to the treatments with active compound was evaluated.
(§4) The evaluation for the damage caused by the chemical compositions was carried out using a scale from 0 to 100%, compared to the untreated control plants. Here, 0 means no damage and 100 means complete destruction of the plants.
(§5) The plants used in the greenhouse experiments belonged to the following species: […]

[1] = system: Øgras (average value of AVEFA, ECHCG, DIGSA and SETVI); experiment: Greenhouse post-emergence weed control, average over grasses (Øgras); format: in vivo; conditions: adjuvant g ai/ha: none (CE1-A)
Protocol: as §1, §2, §3, §4
(§6) The plants used in the greenhouse experiments belonged to the following species:
(§7) The results are summarized in the following tables 1 to 15 that show the applied doses of the individual actives as gram of active ingredient per hectare (g ai/ha), the herbicidal activity of the individual […]

KCHSC (kochia) = experiment: Greenhouse post-emergence weed control, damage vs untreated (KCHSC); format: in vivo, Kochia scoparia; conditions: 20 DAT, adjuvant g ai/ha: none (CE1-A)
Protocol: as §1, §2, §3, §4, §5

ABUTH (velvetleaf) = experiment: Greenhouse post-emergence weed control, damage vs untreated (ABUTH); format: in vivo, Abutilon theophrasti; conditions: 20 DAT, adjuvant g ai/ha: none (CE1-A)
Protocol: as §1, §2
[…] During this time, the plants were tended, and their response to the treatments with active compound was evaluated.
as §4, §5

[2] = system: AMATA (common water hemp); experiment: Greenhouse post-emergence weed control, damage vs untreated (AMATA); format: in vivo, Amaranthus tuberculatus; conditions: 20 DAT, adjuvant g ai/ha: none (CE1-A)
Protocol: as §1, §2, §3, §4, §6
(§8) The results are summarized in the following tables 1 to 15 that show the applied doses of the individual actives as gram of active ingredient per hectare (g ai/ha), the herbicidal activity of the individual actives and of their combinations in post-emergence application assessed 14 and 28 day after treatment (DAT), respectively.

AMAPA (palmer amaranth) = experiment: Greenhouse post-emergence weed control, damage vs untreated (AMAPA); format: in vivo, Amaranthus palmeri; conditions: 20 DAT, adjuvant g ai/ha: none (CE1-A)
Protocol: as §1, §2, §3, §4, §6, §8

SETVI (green foxtail) = experiment: Greenhouse post-emergence weed control, damage vs untreated (SETVI); format: in vivo, Setaria viridis; conditions: adjuvant g ai/ha: none (CE1-A)
Protocol: as §1, §2, §3, §4, §6, §7

AVEFA (wild oat) = experiment: Greenhouse post-emergence weed control, damage vs untreated (AVEFA); format: in vivo, Avena fatua; conditions: adjuvant g ai/ha: none (CE1-A)
Protocol: as §1, §2, §3, §4, §6, §7

HORVW (winter barley) = experiment: Greenhouse post-emergence weed control, damage vs untreated (HORVW); format: in vivo, Hordeum vulgare; conditions: 20 DAT, adjuvant g ai/ha: none (CE1-A)
[3] = system: ØBLV (average value of KCHSC, CHEAL, AMAPA, AMATA and ABUTH); experiment: Greenhouse post-emergence weed control, average over broadleaf weeds (ØBLV); format: in vivo; conditions: 20 DAT, adjuvant g ai/ha: none (CE1-A)
Protocol: as §1, §2, §3, §4, §6, §8

ECHCG (barnyardgrass) = experiment: Greenhouse post-emergence weed control, damage vs untreated (ECHCG); format: in vivo, Echinochloa crus-galli; conditions: adjuvant g ai/ha: none (CE1-A)
Protocol: as §1, §2, §3, §4, §6, §7

CHEAL (lambsquarter) = experiment: Greenhouse post-emergence weed control, damage vs untreated (CHEAL); format: in vivo, Chenopodium album; conditions: adjuvant g ai/ha: none (CE1-A)
Protocol: as §1, §2, §3, §4, §6, §7

[4] = 75 g ai/ha glufosinate rac., 56 (IE1-A), 62.125 (IE1-B), 51.625 (CE2-A, CE2-B), 55.75 (CE2-C), 66.75 (CE2-D), 103.25 (CE2-E)
[5] = 150 g ai/ha glufosinate rac., 112 (IE1-A), 124.25 (IE1-B), 103.25 (CE2-A, CE2-B), 111.5 (CE2-C), 133.5 (CE2-D), 206.5 (CE2-E)
[6] = 300 g ai/ha glufosinate rac., 223 (IE1-A, CE2-C), 248.5 (IE1-B), 206.5 (CE2-A, CE2-B), 267 (CE2-D), 413 (CE2-E)
[7] = 600 g ai/ha glufosinate rac., 446 (IE1-A, CE2-C), 497 (IE1-B), 413 (CE2-A, CE2-B), 534 (CE2-D), 826 (CE2-E)

With `CP(=O)(O)CCC(N)C(=O)O.N` (racemic) [CE1-A, ammonium (2RS)-2-amino-4-(methylphosphinato)butyric acid] the “% activity” value (DIGSA (large crabgrass); [4]) was 0%, the “% activity” value (DIGSA (large crabgrass); [5]) was 0% and the “% activity” value (DIGSA (large crabgrass); [6]) was 50%. The “% activity” value (DIGSA (large crabgrass); [7]) was 80%, the “% activity (Øgras)” value [1, 4] was 21% and the “% activity (Øgras)” value [1, 5] was 24%. The “% activity (Øgras)” value [1, 6] was 40%, the “% activity (Øgras)” value [1, 7] was 51% and the “% activity” value (KCHSC (kochia); [4]) was 0%. The “% activity” value (KCHSC (kochia); [5]) was 0%, the “% activity” value (KCHSC (kochia); [6]) was 5% and the “% activity” value (KCHSC (kochia); [7]) was 20%. For the same molecule, the “% activity” value (ABUTH (velvetleaf); [4]) was 5%, the “% activity” value (ABUTH (velvetleaf); [5]) was 20% and the “% activity” value (ABUTH (velvetleaf); [6]) was 75%. The “% activity” value (ABUTH (velvetleaf); [7]) was 60%, the “% activity” value [2, 4] was 20% and the “% activity” value [2, 5] was 98%. For the same molecule, the “% activity” value [2, 6] was 85%, the “% activity” value [2, 7] was 98% and the “% activity” value (AMAPA (palmer amaranth); [4]) was 50%. For the same molecule, the “% activity” value (AMAPA (palmer amaranth); [5]) was 98%, the “% activity” value (AMAPA (palmer amaranth); [6]) was 98% and the “% activity” value (AMAPA (palmer amaranth); [7]) was 98%. The “% activity” value (SETVI (green foxtail); [4]) was 80%, the “% activity” value (SETVI (green foxtail); [5]) was 95% and the “% activity” value (SETVI (green foxtail); [6]) was 98%. The “% activity” value (SETVI (green foxtail); [7]) was 98%, the “% activity” value (AVEFA (wild oat); [4]) was 5% and the “% activity” value (AVEFA (wild oat); [5]) was 0%. The “% activity” value (AVEFA (wild oat); [6]) was 10%, the “% activity” value (AVEFA (wild oat); [7]) was 25% and the “% activity” value (HORVW (winter barley); [4]) was 0%. For the same molecule, the “% activity” value (HORVW (winter barley); [5]) was 0%, the “% activity” value (HORVW (winter barley); [6]) was 0% and the “% activity (ØBLV)” value [3, 4] was 15%. For the same molecule, the “% activity (ØBLV)” value [3, 5] was 43%, the “% activity (ØBLV)” value [3, 6] was 55% and the “% activity (ØBLV)” value [3, 7] was 57%. The “% activity” value (ECHCG (barnyardgrass); [4]) was 0%, the “% activity” value (ECHCG (barnyardgrass); [5]) was 0% and the “% activity” value (ECHCG (barnyardgrass); [6]) was 0%. For the same molecule, the “% activity” value (ECHCG (barnyardgrass); [7]) was 0%, the “% activity” value (CHEAL (lambsquarter); [4]) was 0% and the “% activity” value (CHEAL (lambsquarter); [5]) was 0%. For the same molecule, the “% activity” value (CHEAL (lambsquarter); [6]) was 10% and the “% activity” value (CHEAL (lambsquarter); [7]) was 10%.
